Columns and labels:
calf thymus DNA [1] = assay: Equilibrium dialysis dark binding (association constant); details: for Ka: 4° C., five days, dark, isopsoralen:DNA base pair 1:15
Experimental: Equilibrium Dialysis was used to determine the association (“dark binding”) constants of AMIP, AMDMIP and MIP with calf thymus DNA. The tritium labelled isopsoralens were used for the experiment. The method was a modification of that of Isaacs et al. Biochemistry 16, 1058-1066 (1977).
Spectrapor 2 dialysis tubing (Spectrum) was pre-treated by boiling in saturated sodium bicarbonate then rinsed thoroughly with double distilled water. Calf thymus DNA (Sigma) was prepared at a concentration of 50 μg/ml in 1×TE. The samples were prepared by placing 1.0 ml of the DNA solution inside the bag and using enough isopsoralen to provide an isopsoralen:DNA base pair ratio of 1:15. The samples were prepared with the tritiated isopsoralen (“Drug”) placed either inside or outside of the dialysis bag (each sample was placed in a scintillation vial containing a small magnetic stir bar). The samples were stirred at 4° C. for five days in the dark. After this period the bags were removed, opened, and the radioactivity inside and outside the bag determined by scintillation counting. The concentration of the DNA was determined by measuring optical density at 260 nm. The […] constant (Ka) was calculated from this information (Table 9). Preparing the samples in duplicate with the isopsoralen both inside and outside the dialysis bag provided a check that the system had come to equilibrium at the end of the dialysis period (the amount of isopsoralen inside and outside the bag at equilibrium should be, and was, the same in both cases).
The association constant, Ka is defined here as [formula]
for the reaction P+DNA P:DNA where P=free drug in solution, DNA=DNA binding site for the drug, and P:DNA=drug associated with the DNA. The following summarizes the Ka values determined for the compounds: […]

calf thymus DNA [2] = assay: Covalent photobinding to calf thymus DNA (Example 38); assay type: binding; details: for actual concentration obtained empirically: nominal 100 μg/ml in calf thymus DNA/1×TE, counted after sitting overnight at room temperature
Experimental: FIG. 17 can again be referred to as a flow chart schematically showing the manner in which covalent binding was measured for the compounds synthesized by the methods of the present invention. ^3H-AMIP (3.1×10^5 cpm/μg), ^3H-AMDMIP (2.2×10^5 cpm/μg), and ^3H-MIP (2.1×10^5 cpm/μg) were added to 300 μl of calf thymus DNA (Sigma) in 1×TE buffer. All of the isopsoralen compounds were added at a nominal concentration of 100 μg/ml. However, actual concentrations obtained empirically (counted after sitting overnight at room temperature) were: ^3H-AMIP (105 μg/ml), ^3H-AMDMIP (115 μg/ml), and ^3H-MIP (<10 μg/ml).
To assess binding, three samples were prepared for each compound; two were irradiated (15 minutes at 25° C. with the CE-I device) while one was unirradiated as a control. Following irradiation, the samples were extracted four times with CHCl3 then precipitated twice. The final pellet was brought up in 2 ml of 1×TE buffer and resuspended by shaking at 40° C. overnight. 50 μl of each sample was then diluted to 0.5 mls with H2O. The concentration of DNA was determined by UV absorption (A260) and the amount of covalently bound isopsoralen (“adduct”) was determined by scintillation counting (3×100 μl aliquots). From these numbers, the following binding ratios (adducts: DNA base pair) were determined: […]

T4 polymerase = assay: Primer extension on monoadducted 71-mer, T4 polymerase; assay type: biochemical; details: 37° C., 0, 5 or 15 minutes
Source text: The sequences that are presented in FIG. 26 describe several oligonucleotides that are used in the synthesis of either a normal 71-mer or the identical 71-mer containing a site-specifically placed psoralen or isopsoralen monoadduct. The 71-mer is a sub-sequence of the Human Immunodeficiency Virus (HIV) sequence. (An HIV DNA system is described in a co-pending application, Serial No. 225,725.) SK-39 is a primer oligonucleotide that is complementary to the 3′ end of the 71-mers. This primer oligonucleotide can be extended on the 71-mer template to make a complementary strand of the 71-mer.
Preparation of 71-mers which contain site-specific monoadducts involves 1) preparation of different 15-mer monoadducts from the same unmodified 15-mer (HRI-42), and 2) ligation of the different 15-mer monoadducts to the same 56-mer “extender oligonucleotide” (HRI 102) using a 25-mer oligonucleotide (HRI-45) as a splint. The arrows in FIG. 27 indicate the direction of synthesis, while the monoadduct is indicated by a short line that is perpendicular to the oligomer. While each of the 71-mer monoadducts contains the adduct at a base position that is greater than 56 bases from the 5′ end, the precise position of the monoadduct is not meant to be indicated.
To prepare the 15-mer adducts, the 15-mer was incubated with a complementary 10-mer along with psoralen or isopsoralen under hybridization conditions. The mixture was then irradiated to provide the monoadducted 15-mer. While the invention is not dependent on knowing the precise mechanism of coupling, it has generally been believed that the 10-mer directs the isopsoralen to a single TpA site within the double-stranded helix formed by the 10-mer/15-mer hybrid. […]
To provide highly purified 71-mers which contain a single monoadduct, it was necessary to provide highly purified 15-mer monoadduct prior to the ligation step. […] Separation of 15-mer monoadduct from unmodified 15-mer was readily accomplished by PAGE (while the same technique is not effective for separation of the corresponding unmodified 71-mer and monoadducted 71-mer sequences). […]

[3] = tritiated drug placed inside dialysis bag
[4] = tritiated drug placed outside dialysis bag

Compound	Ka (calf thymus DNA [1]; [3])	Ka (calf thymus DNA [1]; [4])	actual concentration obtained empirically (calf thymus DNA [2]) [µg/mL]	block of primer extension by 71-mer monoadduct (T4 polymerase)	Ka (DNA association constant) relative to AMDMIP (calf thymus DNA [1]) [%]	modification density relative to that provided by AMDMIP (calf thymus DNA [2]; photobinding at the same concentration) [%]
Cc1oc2ccc3c(C)cc(=O)oc3c2c1CN [AMDMIP, 4′-Aminomethyl-4,5′-dimethylisopsoralen]	7.66 × 10^4	1.07 × 10^5	115	complete stop		
NCc1cc2occc2c2oc(=O)ccc12 [AMIP, 5-Aminomethylisopsoralen]	2.96 × 10^4	2.21 × 10^4	105	complete stops	28	43
Cc1cc2occc2c2oc(=O)ccc12 [MIP, 5-Methylisopsoralen]	9.08 × 10^3	2.07 × 10^3	< 10	complete stops		
